Experiment [1] deals with hemolysin alpha from Staphylococcus aureus (Staphylococcus aureus, UniProt P09616). Nature of the experiment: cell-based.
The target in experiment [2] is S. aureus Alpha hemolysin (Staphylococcus aureus, UniProt P09616). Nature of the experiment: cell-based. The conditions noted are these: A549-LDH Assay activity.

A value given as a limit tells only on which side of the number the result lay.

Chain of hemolysin alpha from Staphylococcus aureus (P09616 27-319 limits assumed): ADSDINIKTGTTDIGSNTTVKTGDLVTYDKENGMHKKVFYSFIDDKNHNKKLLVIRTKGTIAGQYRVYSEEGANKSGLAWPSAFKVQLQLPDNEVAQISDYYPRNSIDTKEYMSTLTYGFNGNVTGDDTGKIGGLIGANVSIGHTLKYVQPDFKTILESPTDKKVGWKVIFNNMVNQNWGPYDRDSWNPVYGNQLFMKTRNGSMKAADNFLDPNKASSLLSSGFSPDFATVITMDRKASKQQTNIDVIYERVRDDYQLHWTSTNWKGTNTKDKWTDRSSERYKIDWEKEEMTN
Chain of S. aureus Alpha hemolysin (P09616 27-319 limits assumed): as above

In the case of `Cc1cc2[nH]c(=O)c(=O)[nH]c2cc1S(=O)(=O)Nc1ccc(-c2ccc3nc[nH]c3c2)c(Cl)c1` [Compound 359, N-[4-(3H-benzimidazol-5-yl)-3-chloro-phenyl]-7-methyl-2,3-dioxo-1,4-dihydroquinoxaline-6-sulfonamide], the figures for the EC50 in experiment [1] and in experiment [2] were 100 to 1000 nM and 30 to 100 nM, respectively.
The matching figures for `Cc1cc2[nH]c(=O)c(=O)[nH]c2cc1S(=O)(=O)Nc1ccc(-c2ccc(C#N)c(N(C)C)c2)c(Cl)c1` [Compound 360, N-[3-chloro-4-[4-cyano-3-(dimethylamino)phenyl]phenyl]-7-methyl-2,3-dioxo-1,4-dihydroquinoxaline-6-sulfonamide]: 30 to 100 nM and 100 to 1000 nM.
As for `Cc1nc2ccc(-c3ccc(NS(=O)(=O)c4cc5[nH]c(=O)c(=O)[nH]c5cc4C)cc3Cl)cc2[nH]1` [Compound 361, N-[3-chloro-4-(2-methyl-3H-benzimidazol-5-yl)phenyl]-7-methyl-2,3-dioxo-1,4-dihydroquinoxaline-6-sulfonamide], the values for the concentration for a half-maximal effect (EC50) in experiment [1] and in experiment [2] were 30 to 100 nM and less than 30 nM, respectively.
Taken in the same sequence, the figures for `Cc1cc2[nH]c(=O)c(=O)[nH]c2cc1S(=O)(=O)Nc1ccc(C2CCC2)cc1` [Compound 362, N-(4-cyclobutylphenyl)-7-methyl-2,3-dioxo-1,4-dihydroquinoxaline-6-sulfonamide] were 100 to 1000 nM and 30 to 100 nM.
The matching figures for `Cc1cc2[nH]c(=O)c(=O)[nH]c2cc1S(=O)(=O)Nc1ccc(-c2cc(F)cc(C(N)=O)c2)c(C(F)(F)F)c1` [Compound 363, 3-fluoro-5-[4-[(7-methyl-2,3-dioxo-1,4-dihydroquinoxalin-6-yl)sulfonylamino]-2-(trifluoromethyl)phenyl]benzamide]: 30 to 100 nM and 30 to 100 nM.
On to `Cc1cc2ccc(-c3ccc(NS(=O)(=O)c4cc5[nH]c(=O)c(=O)[nH]c5cc4C)cc3C(F)(F)F)cc2[nH]1` [Compound 364, 7-methyl-N-[4-(2-methyl-1H-indol-6-yl)-3-(trifluoromethyl)phenyl]-2,3-dioxo-1,4-dihydroquinoxaline-6-sulfonamide], for which the EC50 in experiment [1] and in experiment [2] was less than 30 nM throughout.
For `Cc1cc2[nH]c(=O)c(=O)[nH]c2cc1S(=O)(=O)Nc1ccc(-c2ccc3cccnc3c2)c(C(F)(F)F)c1` [Compound 365, 7-methyl-2,3-dioxo-N-[4-(7-quinolyl)-3-(trifluoromethyl)phenyl]-1,4-dihydroquinoxaline-6-sulfonamide], the values for the EC50 in experiment [1] and in experiment [2] were less than 30 nM and 100 to 1000 nM, respectively.
Taken in the same sequence, the figures for `Cc1cc2[nH]c(=O)c(=O)[nH]c2cc1S(=O)(=O)Nc1ccc(-c2cccc(O)c2)c(C(F)(F)F)c1` [Compound 366, N-[4-(3-hydroxyphenyl)-3-(trifluoromethyl)phenyl]-7-methyl-2,3-dioxo-1,4-dihydroquinoxaline-6-sulfonamide] were less than 30 nM and 30 to 100 nM.
Taken in the same sequence, the figures for `Cc1cc2[nH]c(=O)c(=O)[nH]c2cc1S(=O)(=O)Nc1ccc(-c2ccc3c(c2)NC(=O)CO3)c(C(F)(F)F)c1` [Compound 367, 7-methyl-2,3-dioxo-N-[4-(3-oxo-4H-1,4-benzoxazin-6-yl)-3-(trifluoromethyl)phenyl]-1,4-dihydroquinoxaline-6-sulfonamide] were less than 30 nM and 30 to 100 nM.
The matching figures for `Cc1cc2[nH]c(=O)c(=O)[nH]c2cc1S(=O)(=O)Nc1ccc(-c2ccc(F)c(C(N)=O)c2)c(C(F)(F)F)c1` [Compound 368, 2-fluoro-5-[4-[(7-methyl-2,3-dioxo-1,4-dihydroquinoxalin-6-yl)sulfonylamino]-2-(trifluoromethyl)phenyl]benzamide]: 30 to 100 nM and 100 to 1000 nM.
As for `Cc1cc2[nH]c(=O)c(=O)[nH]c2cc1S(=O)(=O)Nc1ccc(-c2ccc3cc[nH]c3c2)c(C(F)(F)F)c1` [Compound 369, N-[4-(1H-indol-6-yl)-3-(trifluoromethyl)phenyl]-7-methyl-2,3-dioxo-1,4-dihydroquinoxaline-6-sulfonamide], the figures for the EC50 in experiment [1] and in experiment [2] were less than 30 nM and 30 to 100 nM, respectively.
The matching figures for `Cc1cc2[nH]c(=O)c(=O)[nH]c2cc1S(=O)(=O)Nc1ccc(-c2ccc3cn[nH]c3c2)c(Cl)c1` [Compound 370, N-[3-chloro-4-(1H-indazol-6-yl)phenyl]-7-methyl-2,3-dioxo-1,4-dihydroquinoxaline-6-sulfonamide]: less than 30 nM and less than 30 nM.
The matching figures for `C#Cc1cc(NS(=O)(=O)c2cc3[nH]c(=O)c(=O)[nH]c3cc2C)ccc1-c1ccc2oc(C)nc2c1` [Compound 373, N-[3-ethynyl-4-(2-methyl-1,3-benzoxazol-5-yl)phenyl]-7-methyl-2,3-dioxo-1,4-dihydroquinoxaline-6-sulfonamide]: less than 30 nM and less than 30 nM.
As for `Cc1cc2[nH]c(=O)c(=O)[nH]c2cc1S(=O)(=O)Nc1ccc(-c2ccc3cc[nH]c3c2)c(Br)c1` [Compound 374, N-[3-bromo-4-(1H-indol-6-yl)phenyl]-7-methyl-2,3-dioxo-1,4-dihydroquinoxaline-6-sulfonamide], the EC50 in experiment [1] and in experiment [2] was less than 30 nM throughout.
Turning to `Cc1nc2cc(-c3ncc(NS(=O)(=O)c4cc5[nH]c(=O)c(=O)[nH]c5cc4C)cc3Cl)ccc2o1` [Compound 375, N-[5-chloro-6-(2-methyl-1,3-benzoxazol-5-yl)-3-pyridyl]-7-methyl-2,3-dioxo-1,4-dihydroquinoxaline-6-sulfonamide], the EC50 in experiment [1] and in experiment [2] was 30 to 100 nM throughout.
With `Cc1cc2[nH]c(=O)c(=O)[nH]c2cc1S(=O)(=O)Nc1ccc(-c2ccc(C#N)cc2)c(Cl)c1` [Compound 376, N-[3-chloro-4-(4-cyanophenyl)phenyl]-7-methyl-2,3-dioxo-1,4-dihydroquinoxaline-6-sulfonamide], the EC50 was less than 30 nM in experiment [1] and 30 to 100 nM in experiment [2].
Taken in the same sequence, the figures for `Cc1cc2[nH]c(=O)c(=O)[nH]c2cc1S(=O)(=O)Nc1ccc(-c2ccc(F)cc2)c(C#N)c1` [Compound 377, N-[3-cyano-4-(4-fluorophenyl)phenyl]-7-methyl-2,3-dioxo-1,4-dihydroquinoxaline-6-sulfonamide] were 100 to 1000 nM and 100 to 1000 nM.
The matching figures for `C#Cc1cc(NS(=O)(=O)c2cc3[nH]c(=O)c(=O)[nH]c3cc2C)ccc1-c1ccc(F)cc1` [Compound 378, N-[3-ethynyl-4-(4-fluorophenyl)phenyl]-7-methyl-2,3-dioxo-1,4-dihydroquinoxaline-6-sulfonamide]: less than 30 nM and less than 30 nM.
With `O=c1[nH]c2cc(C3CC3)c(S(=O)(=O)Nc3cnc(-c4ccc(F)cc4)c(Cl)c3)cc2[nH]c1=O` [Compound 379, N-[5-chloro-6-(4-fluorophenyl)-3-pyridyl]-7-cyclopropyl-2,3-dioxo-1,4-dihydroquinoxaline-6-sulfonamide], the EC50 in experiment [1] and in experiment [2] was 100 to 1000 nM in each case.
In the case of `COc1cc2[nH]c(=O)c(=O)[nH]c2cc1S(=O)(=O)Nc1ccc(Cl)cc1` [Compound 380, N-(4-chlorophenyl)-7-methoxy-2,3-dioxo-1,4-dihydroquinoxaline-6-sulfonamide], the figures for the EC50 in experiment [1] and in experiment [2] were 1000 to 3500 nM and 100 to 1000 nM, respectively.

In general, EC50 refers to the concentration that produces a half-maximal response. Higher therefore signals a less potent agent.

The values are drawn from patent US20240376084A1, “INHIBITORS OF ALPHA-HEMOLYSIN OF STAPHYLOCOCCUS AUREUS” (Helmholtz-Zentrum Fur Infektionsforschung GmbH, priority 2021, published 2024).
